The source of these data is patent US20260242419A1, “A CYCLIC PEPTIDE FOR TRAPPING INTERLEUKIN-1 BETA” (Merck Sharp & Dohme LLC, priority 2023, published 2026).

The assay deals with T1, IL-1β (Homo sapiens, UniProt P01584).
T1 construct: purchased BioLegend 579404
Put plainly: IL-6 assay in MRC5 cells: inhibition of IL-1β induced IL-6 secretion (AlphaLISA). Type of assay: cell-based. The conditions noted are these: inhibition of IL-1β induced IL-6 secretion in MRC5 cells; read-out: MRC5 IC50. The essentials:
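Compound was pre-incubated 1 h at ambient temperature with recombinant human IL-1β at 2λ EC80 before adding human lung fibroblast MRC5 cells (3000/well) in EMEM with 0.025% BSA. After overnight culture at 37 °C, 5% CO2, secreted IL-6 in conditioned medium was measured by AlphaLISA; IC50 from 4-parameter logistic fits.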
On the technique in general: Bead proximity is the source of the signal in Alpha formats.

Starred links: 1 amine or outer side, 2 acyl side, 3 side chain; linkers in the order of their positions; H or OH if unused. Non-standard residues stand in square brackets, D forms with d. Residues, ends and D or L forms follow the SMILES beside them. Phe(4-(trans-4-COOH-cHex)) = N[C@@H](Cc1ccc([C@H]2CC[C@H](C(=O)O)CC2)cc1)C(=O)O; Phe(4-(cis-4-COOH-cHex)) = N[C@@H](Cc1ccc([C@H]2CC[C@@H](C(=O)O)CC2)cc1)C(=O)O; dPro(4R-(4-pyridylmethyl)) = O=C(O)[C@H]1C[C@@H](Cc2ccncc2)CN1; Trp(βS-Me,4-F) = C[C@@H](c1c[nH]c2cccc(F)c12)[C@H](N)C(=O)O; Bip(4'-COOH) = N[C@@H](Cc1ccc(-c2ccc(C(=O)O)cc2)cc1)C(=O)O; Ala(1-bicyclo(1.1.1)pentyl) = N[C@@H](CC12CC(C1)C2)C(=O)O; dPro(4R-Bzl(4-F)) = O=C(O)[C@H]1C[C@@H](Cc2ccc(F)cc2)CN1; Ala(pyrimidin-5-yl) = N[C@@H](Cc1cncnc1)C(=O)O; Phe(4-COOH) = N[C@@H](Cc1ccc(C(=O)O)cc1)C(=O)O; Ala(2-pyrazinyl) = N[C@@H](Cc1cnccn1)C(=O)O; Pro(cis-4-F) = O=C(O)[C@@H]1C[C@H](F)CN1; X23 = O=C([C@H](Cc1ncccn1)N[*:1])[*:2]; X47 = O=C([C@H](Cc1cccnn1)N[*:1])[*:2]; 4Pal = N[C@@H](Cc1ccncc1)C(=O)O; d(αMeS) = C[C@@](N)(CO)C(=O)O; αMeS = C[C@](N)(CO)C(=O)O; Orn = NCCC[C@H](N)C(=O)O; Api = NC1(C(=O)O)CCNCC1; Dab = NCC[C@H](N)C(=O)O; Aib = CC(C)(N)C(=O)O

T1 sequence (P01584 117-269): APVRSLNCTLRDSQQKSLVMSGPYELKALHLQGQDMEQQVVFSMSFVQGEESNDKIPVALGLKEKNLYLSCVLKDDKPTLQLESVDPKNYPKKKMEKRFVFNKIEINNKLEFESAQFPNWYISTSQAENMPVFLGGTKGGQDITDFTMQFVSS

As for `C[C@@H](c1c[nH]c2cccc(F)c12)[C@@H]1NC(=O)[C@@H]2C[C@H](F)CN2C(=O)CNC(=O)[C@H](Cc2ccc(C(=O)O)cc2)NC(=O)[C@H](Cc2ccncc2)NC(=O)[C@H](Cc2ccc(-c3ccc(C(=O)O)cc3)cc2)NC(=O)[C@H]2C[C@@H](Cc3ccc(F)cc3)CN2C(=O)CNC(=O)[C@H](CCN)NC(=O)[C@H](CCC(N)=O)NC(=O)[C@H](Cc2cnccn2)NC(=O)C(C)(C)NC(=O)[C@H](Cc2c[nH]c3ccccc23)NC(=O)[C@H](CCC(=O)O)NC(=O)C(C)(C)NC1=O` [Example 101] (cyclo([4Pal][Phe(4-COOH)]G[Pro(cis-4-F)][Trp(βS-Me,4-F)][Aib]EW[Aib][Ala(2-pyrazinyl)]Q[Dab]G[dPro(4R-Bzl(4-F))][Bip(4'-COOH)])), the half-maximal inhibitory concentration (IC50) came out at 0.021 nM.

On to `C[C@@H](c1c[nH]c2cccc(F)c12)[C@@H]1NC(=O)[C@@H]2C[C@H](F)CN2C(=O)CNC(=O)[C@H](Cc2ccc(C(=O)O)cc2)NC(=O)[C@H](Cc2ccncc2)NC(=O)[C@H](Cc2ccc(-c3ccc(C(=O)O)cc3)cc2)NC(=O)[C@H]2C[C@@H](Cc3ccc(F)cc3)CN2C(=O)CNC(=O)[C@H](CCN)NC(=O)[C@H](CCC(N)=O)NC(=O)[C@H](Cc2cccnn2)NC(=O)C(C)(C)NC(=O)[C@H](Cc2c[nH]c3ccccc23)NC(=O)[C@H](CCC(=O)O)NC(=O)C(C)(C)NC1=O` [Example 102] (cyclo([Bip(4'-COOH)][4Pal][Phe(4-COOH)]G[Pro(cis-4-F)][Trp(βS-Me,4-F)][Aib]EW[Aib][X47]Q[Dab]G[dPro(4R-Bzl(4-F))])), for which the IC50 worked out at 0.021 nM. To `C[C@@H](c1c[nH]c2cccc(F)c12)[C@@H]1NC(=O)[C@@H]2C[C@H](F)CN2C(=O)CNC(=O)[C@H](Cc2ccc(C(=O)O)cc2)NC(=O)[C@H](CC23CC(C2)C3)NC(=O)[C@H](Cc2ccc([C@H]3CC[C@@H](C(=O)O)CC3)cc2)NC(=O)[C@H]2C[C@@H](Cc3ccc(F)cc3)CN2C(=O)CNC(=O)[C@H](CCN)NC(=O)[C@H](CCC(N)=O)NC(=O)[C@H](CO)NC(=O)C2(CCNCC2)NC(=O)[C@H](Cc2c[nH]c3ccccc23)NC(=O)[C@H](CCC(=O)O)NC(=O)C(C)(C)NC1=O` [Example 105] (cyclo([Phe(4-(cis-4-COOH-cHex))][Ala(1-bicyclo(1.1.1)pentyl)][Phe(4-COOH)]G[Pro(cis-4-F)][Trp(βS-Me,4-F)][Aib]EW[Api]SQ[Dab]G[dPro(4R-Bzl(4-F))])) belongs 0.083 nM. To `C[C@@H](c1c[nH]c2cccc(F)c12)[C@@H]1NC(=O)[C@@H]2C[C@H](F)CN2C(=O)CNC(=O)[C@H](Cc2ccc(C(=O)O)cc2)NC(=O)[C@H](CC23CC(C2)C3)NC(=O)[C@H](Cc2ccc([C@H]3CC[C@@H](C(=O)O)CC3)cc2)NC(=O)[C@H]2C[C@@H](Cc3ccc(F)cc3)CN2C(=O)CNC(=O)[C@H](CCN)NC(=O)[C@H](CCC(N)=O)NC(=O)[C@H](CO)NC(=O)C(C)(C)NC(=O)[C@H](Cc2c[nH]c3ccccc23)NC(=O)[C@H](CO)NC(=O)C(C)(C)NC1=O` [Example 106] (cyclo([Phe(4-(cis-4-COOH-cHex))][Ala(1-bicyclo(1.1.1)pentyl)][Phe(4-COOH)]G[Pro(cis-4-F)][Trp(βS-Me,4-F)][Aib]SW[Aib]SQ[Dab]G[dPro(4R-Bzl(4-F))])) belongs 0.031 nM; to `C[C@@H](c1c[nH]c2cccc(F)c12)[C@@H]1NC(=O)[C@@H]2C[C@H](F)CN2C(=O)CNC(=O)[C@H](Cc2ccc(C(=O)O)cc2)NC(=O)[C@H](CC23CC(C2)C3)NC(=O)[C@H](Cc2ccc([C@H]3CC[C@@H](C(=O)O)CC3)cc2)NC(=O)[C@H]2C[C@@H](Cc3ccc(F)cc3)CN2C(=O)CNC(=O)[C@H](CCN)NC(=O)[C@H](CCC(N)=O)NC(=O)[C@H](CO)NC(=O)C(C)(C)NC(=O)[C@H](Cc2c[nH]c3ccccc23)NC(=O)[C@H](CCC(=O)O)NC(=O)[C@](C)(CO)NC1=O` [Example 107] (cyclo([Phe(4-(cis-4-COOH-cHex))][Ala(1-bicyclo(1.1.1)pentyl)][Phe(4-COOH)]G[Pro(cis-4-F)][Trp(βS-Me,4-F)][αMeS]EW[Aib]SQ[Dab]G[dPro(4R-Bzl(4-F))])), 0.063 nM. Take `C[C@@H](c1c[nH]c2cccc(F)c12)[C@@H]1NC(=O)[C@@H]2C[C@H](F)CN2C(=O)CNC(=O)[C@H](Cc2ccc(C(=O)O)cc2)NC(=O)[C@H](Cc2ccncc2)NC(=O)[C@H](Cc2ccc(-c3ccc(C(=O)O)cc3)cc2)NC(=O)[C@H]2C[C@@H](Cc3ccncc3)CN2C(=O)CNC(=O)[C@H](CCCN)NC(=O)[C@H](CCC(N)=O)NC(=O)[C@H](Cc2cncnc2)NC(=O)C(C)(C)NC(=O)[C@H](Cc2c[nH]c3ccccc23)NC(=O)[C@H](CO)NC(=O)C(C)(C)NC1=O` [Example 108] (cyclo([Bip(4'-COOH)][4Pal][Phe(4-COOH)]G[Pro(cis-4-F)][Trp(βS-Me,4-F)][Aib]SW[Aib][Ala(pyrimidin-5-yl)]Q[Orn]G[dPro(4R-(4-pyridylmethyl))])): the IC50 worked out at 0.024 nM. For `C[C@@H](c1c[nH]c2cccc(F)c12)[C@@H]1NC(=O)[C@@H]2C[C@H](F)CN2C(=O)CNC(=O)[C@H](Cc2ccc(C(=O)O)cc2)NC(=O)[C@H](CC23CC(C2)C3)NC(=O)[C@H](Cc2ccc(-c3ccc(C(=O)O)cc3)cc2)NC(=O)[C@H]2C[C@@H](Cc3ccncc3)CN2C(=O)CNC(=O)[C@H](CCCN)NC(=O)[C@H](CCC(N)=O)NC(=O)[C@H](Cc2cncnc2)NC(=O)C(C)(C)NC(=O)[C@H](Cc2c[nH]c3ccccc23)NC(=O)[C@H](CO)NC(=O)C(C)(C)NC1=O` [Example 109] (cyclo([Bip(4'-COOH)][Ala(1-bicyclo(1.1.1)pentyl)][Phe(4-COOH)]G[Pro(cis-4-F)][Trp(βS-Me,4-F)][Aib]SW[Aib][Ala(pyrimidin-5-yl)]Q[Orn]G[dPro(4R-(4-pyridylmethyl))])) the value was 0.036 nM. On to `C[C@@H](c1c[nH]c2cccc(F)c12)[C@@H]1NC(=O)[C@@H]2C[C@H](F)CN2C(=O)CNC(=O)[C@H](Cc2ccc(C(=O)O)cc2)NC(=O)[C@H](CC23CC(C2)C3)NC(=O)[C@H](Cc2ccc(-c3ccc(C(=O)O)cc3)cc2)NC(=O)[C@H]2C[C@@H](Cc3ccc(F)cc3)CN2C(=O)CNC(=O)[C@H](CCN)NC(=O)[C@H](CCC(N)=O)NC(=O)[C@H](CCCN)NC(=O)C(C)(C)NC(=O)[C@H](Cc2c[nH]c3ccccc23)NC(=O)[C@H](CO)NC(=O)C(C)(C)NC1=O` [Example 110] (cyclo([Bip(4'-COOH)][Ala(1-bicyclo(1.1.1)pentyl)][Phe(4-COOH)]G[Pro(cis-4-F)][Trp(βS-Me,4-F)][Aib]SW[Aib][Orn]Q[Dab]G[dPro(4R-Bzl(4-F))])), for which the 50% inhibitory concentration (IC50) was determined as 0.038 nM. For `C[C@@H](c1c[nH]c2cccc(F)c12)[C@@H]1NC(=O)[C@@H]2C[C@H](F)CN2C(=O)CNC(=O)[C@H](Cc2ccc(C(=O)O)cc2)NC(=O)[C@H](Cc2ccncc2)NC(=O)[C@H](Cc2ccc(-c3ccc(C(=O)O)cc3)cc2)NC(=O)[C@H]2C[C@@H](Cc3ccncc3)CN2C(=O)CNC(=O)[C@H](CCN)NC(=O)[C@H](CCC(N)=O)NC(=O)[C@H](Cc2cncnc2)NC(=O)[C@@](C)(CO)NC(=O)[C@H](Cc2c[nH]c3ccccc23)NC(=O)[C@H](CO)NC(=O)C(C)(C)NC1=O` [Example 111] (cyclo([Bip(4'-COOH)][4Pal][Phe(4-COOH)]G[Pro(cis-4-F)][Trp(βS-Me,4-F)][Aib]SW[d(αMeS)][Ala(pyrimidin-5-yl)]Q[Dab]G[dPro(4R-(4-pyridylmethyl))])) the value was 0.019 nM; for `C[C@@H](c1c[nH]c2cccc(F)c12)[C@@H]1NC(=O)[C@@H]2C[C@H](F)CN2C(=O)CNC(=O)[C@H](Cc2ccc(C(=O)O)cc2)NC(=O)[C@H](CC23CC(C2)C3)NC(=O)[C@H](Cc2ccc(-c3ccc(C(=O)O)cc3)cc2)NC(=O)[C@H]2C[C@@H](Cc3ccncc3)CN2C(=O)CNC(=O)[C@H](CCN)NC(=O)[C@H](CCC(N)=O)NC(=O)[C@H](Cc2cncnc2)NC(=O)[C@@](C)(CO)NC(=O)[C@H](Cc2c[nH]c3ccccc23)NC(=O)[C@H](CO)NC(=O)C(C)(C)NC1=O` [Example 112] (cyclo([Bip(4'-COOH)][Ala(1-bicyclo(1.1.1)pentyl)][Phe(4-COOH)]G[Pro(cis-4-F)][Trp(βS-Me,4-F)][Aib]SW[d(αMeS)][Ala(pyrimidin-5-yl)]Q[Dab]G[dPro(4R-(4-pyridylmethyl))])), 0.018 nM.

With `C[C@@H](c1c[nH]c2cccc(F)c12)[C@@H]1NC(=O)[C@@H]2C[C@H](F)CN2C(=O)CNC(=O)[C@H](Cc2ccc(C(=O)O)cc2)NC(=O)[C@H](Cc2ccncc2)NC(=O)[C@H](Cc2ccc(-c3ccc(C(=O)O)cc3)cc2)NC(=O)[C@H]2C[C@@H](Cc3ccc(F)cc3)CN2C(=O)CNC(=O)[C@H](CCN)NC(=O)[C@H](CCC(N)=O)NC(=O)[C@H](Cc2ncccn2)NC(=O)C(C)(C)NC(=O)[C@H](Cc2c[nH]c3ccccc23)NC(=O)[C@H](CCC(=O)O)NC(=O)C(C)(C)NC1=O` [Example 113] (cyclo([Bip(4'-COOH)][4Pal][Phe(4-COOH)]G[Pro(cis-4-F)][Trp(βS-Me,4-F)][Aib]EW[Aib][X23]Q[Dab]G[dPro(4R-Bzl(4-F))])), the IC50 was 0.018 nM. Take `C[C@@H](c1c[nH]c2cccc(F)c12)[C@@H]1NC(=O)[C@@H]2C[C@H](F)CN2C(=O)CNC(=O)[C@H](Cc2ccc(C(=O)O)cc2)NC(=O)[C@H](Cc2ccncc2)NC(=O)[C@H](Cc2ccc([C@H]3CC[C@H](C(=O)O)CC3)cc2)NC(=O)[C@H]2C[C@@H](Cc3ccc(F)cc3)CN2C(=O)CNC(=O)[C@H](CCN)NC(=O)[C@H](CCC(N)=O)NC(=O)[C@H](Cc2cncnc2)NC(=O)C(C)(C)NC(=O)[C@H](Cc2c[nH]c3ccccc23)NC(=O)[C@H](CCC(=O)O)NC(=O)C(C)(C)NC1=O` [Example 114] (cyclo([Phe(4-(trans-4-COOH-cHex))][4Pal][Phe(4-COOH)]G[Pro(cis-4-F)][Trp(βS-Me,4-F)][Aib]EW[Aib][Ala(pyrimidin-5-yl)]Q[Dab]G[dPro(4R-Bzl(4-F))])): the IC50 was 0.035 nM.

What is called IC50 is the midpoint of a concentration-inhibition curve.
